From patent US8198215B2, “Methods for protecting seeds” (Sygenta Crop Protection LLC, priority 2005, dated 2012)

Legend:
Format in all cases: in vivo
Ustilago nuda [1] = assay: Example B-5: comparison test with prior art compound B, activity against Ustilago nuda on barley; details: 10 g active ingredient per 100 kg seed; for % Control / % infected heads: barley seed treatment; for % Control: relative to untreated; for % infected heads: untreated 13
Method: (§1) After application of the active ingredient formulated as a flowable concentrate for seed treatment onto U. nuda-infected seeds of winterbarley the seeds are sown in trays filled with field soil. The trays are transferred to a growth room and kept there for 2 days at 20° C. and then for 2 weeks at 2° C. After this period the trial is transferred to a greenhouse where a temperature of 15° C. and a 14 hr light period is provided until flowering. The following assessments are made: number of infected heads. Each number is determined for 200 seeds per treatment (2 replicates a 100 seeds). The activity against Ustilago nuda on barley of the racemic compound of formula Ia according to the invention was compared with racemic compound B, which is described as compound no. 2.69 on pages 7, table 2, and page 16, table 7, of WO 03/074491. The method used to compare the activity is described under example B-4 above.

Ustilago nuda [2] = assay: Example B-6: comparison test with prior art compound C, activity against Ustilago nuda on barley; details: 10 g active ingredient per 100 kg seed; for % Control / % infected heads: barley seed treatment; for % Control: relative to untreated; for % infected heads: untreated 13
Method: as §1, with “C (trans/cis-ratio: 10:1),” for “B,”, “2.40” for “2.69”, “pages 6 and” for “pages”, “2,” for “2, and page 16, table 7,”

Ustilago nuda [3] = assay: Example B-4: activity against Ustilago nuda on barley, seed treatment; details: U. nuda-infected winterbarley seeds; for % Control: relative to untreated; for % infected heads: untreated 23.1
Method: After application of the active ingredient formulated as a flowable concentrate for seed treatment onto U. nuda-infected seeds of winterbarley the seeds are sown in trays filled with field soil. The trays are transferred to a growth room and kept there for 2 days at 20° C. and then for 2 weeks at 2° C. After this period the trial is transferred to a greenhouse where a temperature of 15° C. and a 14 hr light period is provided until flowering. The following assessments are made: number of infected heads. Each number is determined for 200 seeds per treatment (2 replicates a 100 seeds).

Microdochium nivale = assay: Example B-2: activity against Microdochium nivale on wheat, seed treatment; details: M. nivale-infected winterwheat seeds, 10 g/100 kg seed
Method: After application of the active ingredient formulated as a flowable concentrate for seed treatment onto M. nivale-infected seeds of winterwheat the seeds are sown in trays filled with planting soil. The trial is kept for 4 weeks in a growth room at 4° C. and darkness. Then the temperature is increased to 15° C. and a 12 hr light period is provided. After development of the primary leaf plants are kept at 10° C. and high humidity until the trial is finished. The following assessments are made: number of infected plants. Each number is determined for 100 seeds per treatment (2 replicates a 50 seeds).

Gäumannomyces graminis = assay: Example B-1: activity against Gäumannomyces graminis on wheat, seed treatment; details: winterwheat seed treatment; for % root browning: inoculated field soil, 5 weeks at 17° C., untreated 50; for Control: relative to untreated
Method: After application of the active ingredient formulated as a flowable concentrate for seed treatment onto seeds of winterwheat the seeds are sown in trays filled with field soil. The field soil has been inoculated artificially before sowing with Gäumannomyces graminis by thoroughly mixing mycelium and soil. The trial is kept in a growth room for 5 weeks at 17° C. and a 14 hr light period. The following assessments are made: % root browning. Each number is determined for 30 seeds per treatment (3 replicates a 10 seeds).

Pyrenophora graminea = assay: Example B-3: activity against Pyrenophora graminea on barley, seed treatment; details: P. graminea-infected winterbarley seeds, 10 g/100 kg seed
Method: After application of the active ingredient formulated as a flowable concentrate for seed treatment onto P. graminea-infected seeds of winterbarley the seeds are sown in trays filled with field soil. The trays are kept in a growth room for 3 weeks at 4° C. After this period the trial is transferred to a greenhouse where a temperature of 12° C. and a 14 hr light period is provided. The following assessments are made: number of infected plants. Each number is determined for 200 seeds per treatment (2 replicates a 100 seeds).

SMILES | % Control (Ustilago nuda [1]) [%] | % infected heads (Ustilago nuda [1]) [%] | % Control (Ustilago nuda [2]) [%] | % infected heads (Ustilago nuda [2]) [%] | % Control (Ustilago nuda [3]; 2.5 g/100 kg seed) [%] | % infected heads (Ustilago nuda [3]; 2.5 g/100 kg seed) [%] | % Control (Ustilago nuda [3]; 5 g/100 kg seed) [%] | % infected heads (Ustilago nuda [3]; 5 g/100 kg seed) [%] | Control (Microdochium nivale; relative to untreated) | % infected plants (Microdochium nivale; untreated 38) [%] | fungicidal action against Ustilago nuda on barley compared with racemic compound B (Ustilago nuda [1]) | % root browning (Gäumannomyces graminis; 10 g/100 kg seed) [%] | Control (Gäumannomyces graminis; 10 g/100 kg seed) | % root browning (Gäumannomyces graminis; 33 g/100 kg seed) [%] | Control (Gäumannomyces graminis; 33 g/100 kg seed) | fungicidal action against Ustilago nuda on barley compared with racemic compound C (Ustilago nuda [2]) | Control (Pyrenophora graminea; relative to untreated) | % infected plants (Pyrenophora graminea; untreated 54) [%]
Cn1cc(C(=O)Nc2ccccc2[C@@H]2C[C@H]2c2ccc(Cl)cc2)c(C(F)F)n1 (racemic) [Racemic compound B, reference compound] | 9 | 11.9 |  |  |  |  |  |  |  |  |  |  |  |  |  |  |  | 
Cn1cc(C(=O)Nc2ccccc2C2CC2C2CCCC2)c(C(F)F)n1 (racemic) [Racemic compound C, reference compound] |  |  | 11 | 11.6 |  |  |  |  |  |  |  |  |  |  |  |  |  | 
Cn1cc(C(=O)Nc2ccccc2[C@@H]2C[C@H]2C2CC2)c(C(F)F)n1 (racemic) [Racemic compound of formula Ia] | 100 | 0 | 100 | 0 | 100 | 0 | 100 | 0 | 86.8 | 5 | substantially better fungicidal action | 28 | 44 | 20 | 60 | substantially better fungicidal action | 98.1 | 1
